Laboratory results as given in patent US20250049791A1, “Synthesis of MEK7 Inhibitors and methods of Use Thereof” (Northwestern University, priority 2023, published 2025).
Like-named read-outs stand apart in the source and are kept apart here.

Target: T1, recombinant active full-length human MEK7 (Homo sapiens, UniProt O14733)
T1 construct: recombinant active full-length human MEK7 (Carna Biosciences); purchased Carna Biosciences
T1 sequence (O14733 1-419): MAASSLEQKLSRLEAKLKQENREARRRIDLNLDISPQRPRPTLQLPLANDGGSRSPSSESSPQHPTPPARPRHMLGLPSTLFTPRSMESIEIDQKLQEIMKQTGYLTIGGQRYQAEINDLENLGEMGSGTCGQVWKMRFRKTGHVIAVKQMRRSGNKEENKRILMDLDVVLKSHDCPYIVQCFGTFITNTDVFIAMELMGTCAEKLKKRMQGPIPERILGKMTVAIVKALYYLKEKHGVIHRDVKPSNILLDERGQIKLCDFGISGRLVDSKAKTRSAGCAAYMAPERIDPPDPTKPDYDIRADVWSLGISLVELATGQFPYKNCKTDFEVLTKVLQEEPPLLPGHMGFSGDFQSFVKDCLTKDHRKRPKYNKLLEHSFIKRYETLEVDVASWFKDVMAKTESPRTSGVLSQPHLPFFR
Assay: ADP-Glo kinase activity assay, MEK7 with JNK1 substrate
Format: biochemical
Conditions: for in vitro activity against MAP2K7, in words: ADP-Glo assay, comparison within the series
Procedure: Procedure for a 5 μL Kinase reaction using the ADP-Glo Kinase Assay Kit from Promega. Staurosporine was used as the positive control, and DMSO (vehicle) was employed as the negative control. Activity of recombinant active full-length human MEK7 (Carna Biosciences) was measured with recombinant full-length human substrate JNK1 (MAPK8). Using a Mantis, a mixture of MEK7 and JNK1 was dispensed into a 384-well low volume white Proxiplate. For each well, 4 ng of MEK7 and 600 ng of JNK1 in kinase buffer (CST) were used, accounting for 1 μL of this mixture per well. Inhibitor was prepared in a DMSO solution (40 mM). A dose-response dilution was performed in a 384-well Echo transfer plate. Using an Echo Access, 10 nL of each solution was dispensed into the same 384-well low volume white Proxiplate as above. This mixture was allowed to incubate for 30 minutes at room temperature. Using a Mantis, 1 uL of an 8 μM ATP solution was added to each well, and the plate was allowed to incubate for another 1 hour at room temperature. Using the Mantis again, 4 μL of ADP Glo Reagent was dispensed into each well, and the plate was allowed to incubate for 45 min at room temperature. Finally, 9 μL of Kinase Detection Reagent was added manually to each well, and the plate was allowed to incubate for 45 minutes at room temperature. Luminescence was read on a Synergy Neo2 Plate Reader with filter cubes 3 and 114. Integration time was set to 0.20 seconds, gain set to 160, and read height set at 6 mm. All experiments were performed in triplicate on the plate, and at least in one separate technical duplicate was performed.
MEK4 selectivity was performed in the same manner with activated MEK4 (Carna Biosciences). Here, p-38α was employed as the kinase substrate in lieu of JNK1 due to the availability of reagents. […] To probe the ATP-competitive nature of 25, this compound was subjected to a similar assay forgoing the 30 minute incubation time described above (STAR Protocols 2021, 2, 100717). The results are tabulated below in compound characterization. Potency determined by duplicate of triplicates corresponded to a IC50 value, which is in line with the ratio difference observed among other covalent inhibitors (for examples, see Cell Chem. Biol. 2020, 27, 1285).

[1] = 30 min preincubation, overall value of two experiments, read-out: MEK7 IC50
[2] = MEK7 IC50, first experiment (IC50±SEM, n=3), 30 min preincubation, first value in brackets
[3] = MEK7 IC50, second experiment (IC50±SEM, n=3), 30 min preincubation, second value in brackets
[4] = 30 min preincubation, read-out: MEK7 IC50
[5] = 30 min preincubation, first value in brackets
[6] = read-out: MEK7 IC50, second experiment (IC50±SEM, n=3), 30 min preincubation, second value in brackets

SMILES | IC50 [1] | in vitro activity against MAP2K7, in words | IC50 [2] | IC50 [3] | further results
CC=CC(=O)Nc1cccc(Oc2cc(NC)ncn2)c1 (mixture of isomers) [Compound 10, (E/Z)—N-(3-((6-(methylamino)pyrimidin-4-yl)oxy)phenyl) but-2-enamide] | > 80000 nM | less potent | – | – | –
CNc1cc(Oc2ccc(NC(=O)CCl)cc2)ncn1 [Compound 6, 2-chloro-N-(4-((6-(methylamino)pyrimidin-4-yl)oxy)phenyl)acetamide] | 1800 nM | less active than compound 8 | 1500 ± 210 nM | 2100 ± 1100 nM | –
C=CC(=O)Nc1ccc(Oc2cc(NC)ncn2)cc1 [Compound 7, N-(4-((6-(methylamino)pyrimidin-4-yl)oxy)phenyl) acrylamide] | 8800 nM | less active than compound 8 | 7700 ± 1300 nM | 9900 ± 1200 nM | IC50 [4]: 60 nM
CNc1cc(Oc2cccc(NC(=O)C(C)(C)CCl)c2)ncn1 [Compound 11, 3-chloro-2,2-dimethyl-N-(3-((6-(methylamino)pyrimidin-4-yl)oxy)phenyl) propenamide] | – | less potent | – | – | –
CNc1cc(Oc2cccc(NC(=O)CF)c2)ncn1 [Compound 12, 2-fluoro-N-(3-((6-(methylamino)pyrimidin-4-yl)oxy)phenyl)acetamide] | 7800 nM | attenuated activity | – | – | IC50 [5]: 7700 ± 20000 nM; IC50 [6]: 7800 ± 5000 nM
CNc1cc(Oc2cccc(NC(=O)COC)c2)ncn1 [Compound 13, 2-methoxy-N-(3-((6-(methylamino)pyrimidin-4-yl)oxy)phenyl)acetamide] | – | attenuated activity | – | – | –
O=C(CCl)Nc1cccc(Oc2cc(N3CCOCC3)ncn2)c1 [Compound 14, 2-chloro-N-(3-((6-morpholinopyrimidin-4-yl)oxy)phenyl)acetamide] | – | – | – | – | MEK7 IC50, first experiment (IC50±SEM, n=3) [5]: 1.3 ± 3.4 µM
O=C(CCl)Nc1cccc(Oc2cc(NCCc3c[nH]c4ccccc34)ncn2)c1 [Compound 15, N-(3-((6-((2-(1H-indol-3-yl)ethyl)amino)pyrimidin-4-yl)oxy)phenyl)-2-chloroacetamide] | 260 nM | greatest potency | 300 ± 92 nM | 210 ± 180 nM | –
O=C(CCl)Nc1cccc(Oc2cc(NC3CCCC3)ncn2)c1 [Compound 16, 2-chloro-N-(3-((6-(cyclopentylamino)pyrimidin-4-yl)oxy)phenyl)acetamide] | 270 nM | – | 350 ± 150 nM | 190 ± 190 nM | –
O=C(CCl)Nc1cccc(Oc2cc(NCCc3ccccc3)ncn2)c1 [Compound 18] | 1200 nM | – | 730 ± 220 nM | 1700 nM | –
O=C(CCl)Nc1cccc(Oc2cc(NCCc3ccc(Cl)cc3)ncn2)c1 [Compound 19, 2-chloro-N-(3-((6-((4-chlorophenethyl)amino)pyrimidin-4-yl)oxy)phenyl)acetamide] | 66 nM | greatest potency | 53 nM | 78 ± 91 nM | –
O=C(CCl)Nc1cccc(Oc2cc(NCCc3ccc(F)cc3)ncn2)c1 [Compound 20, 2-chloro-N-(3-((6-((4-fluorophenethyl)amino)pyrimidin-4-yl)oxy)phenyl)acetamide] | 1200 nM | – | 710 ± 400 nM | 1600 ± 1800 nM | –
COc1ccc(CCNc2cc(Oc3cccc(NC(=O)CCl)c3)ncn2)cc1 [Compound 21, 2-chloro-N-(3-((6-((4-methoxyphenethyl)amino)pyrimidin-4-yl)oxy)phenyl)acetamide] | 930 nM | – | 1200 ± 330 nM | 660 ± 310 nM | –
COc1ccc(CCNc2cc(Oc3cccc(NC(=O)CCl)c3)ncn2)cc1OC [Compound 22, 2-chloro-N-(3-((6-((3,4-dimethoxyphenethyl)amino)pyrimidin-4-yl)oxy)phenyl)acetamide] | 1700 nM | – | 1900 ± 550 nM | 1400 ± 970 nM | –
O=C(CCl)Nc1cccc(Oc2cc(NCCc3ccc4c(c3)OCO4)ncn2)c1 [Compound 23, N-(3-((6-((2-(benzo[d][1,3]dioxol-5-yl)ethyl)amino)pyrimidin-4-yl)oxy)phenyl)-2-chloroacetamide] | 1100 nM | – | 1400 ± 810 nM | 830 ± 680 nM | –
CN(Cc1ccccc1)c1cc(Oc2cccc(NC(=O)CCl)c2)ncn1 [Compound 24, N-(3-((6-(benzyl(methyl)amino)pyrimidin-4-yl)oxy)phenyl)-2-chloroacetamide] | 110 nM | ten-fold attenuation | 140 ± 87 nM | 87 ± 42 nM | –
O=C(CCl)Nc1cccc(Oc2cc(NCc3cc(F)cc(F)c3)ncn2)c1 [Compound 26, 2-chloro-N-(3-((6-((3,5-difluorobenzyl)amino)pyrimidin-4-yl)oxy)phenyl)acetamide] | 74 nM | – | 110 nM | – | –
O=C(CCl)Nc1cccc(Oc2cc(NCc3ccc(F)cc3F)ncn2)c1 [Compound 27, 2-chloro-N-(3-((6-((2,4-difluorobenzyl)amino)pyrimidin-4-yl)oxy)phenyl)acetamide] | 360 nM | – | 140 nM | 580 ± 200 nM | –
O=C(CCl)Nc1cccc(Oc2cc(NCc3c(F)ccc(F)c3F)ncn2)c1 [Compound 28, 2-chloro-N-(3-((6-((2,3,6-trifluorobenzyl)amino)pyrimidin-4-yl)oxy)phenyl)acetamide] | 110 nM | – | 880 ± 29 nM | 140 ± 44 nM | –
O=C(CCl)Nc1cccc(Oc2cc(NCc3ccc(F)c(F)c3)ncn2)c1 [Compound 29, 2-chloro-N-(3-((6-((3,4-difluorobenzyl)amino)pyrimidin-4-yl)oxy)phenyl)acetamide] | 42 nM | – | – | – | IC50 [4]: 42 nM; IC50 (read-out: MEK7 IC50, first experiment (IC50±SEM, n=3), 30 min preincubation, first value in brackets): 42 ± 36 nM; IC50 [6]: 42 ± 58 nM
O=C(CCl)Nc1cccc(Oc2cc(NCc3ccccc3C(F)(F)F)ncn2)c1 [Compound 30, 2-chloro-N-(3-((6-((2-(trifluoromethyl)benzyl)amino)pyrimidin-4-yl)oxy)phenyl)acetamide] | 1200 nM | towards the micromolar range | 1100 ± 480 nM | 1300 ± 550 nM | –
O=C(CCl)Nc1cccc(Oc2cc(NCc3ccc(F)c(C(F)(F)F)c3)ncn2)c1 [Compound 31, 2-chloro-N-(3-((6-((4-fluoro-3-(trifluoromethyl)benzyl)amino)pyrimidin-4-yl)oxy)phenyl)acetamide] | 3000 nM | – | 4200 ± 2500 nM | 1800 ± 1200 nM | –
COc1ccccc1CNc1cc(Oc2cccc(NC(=O)CCl)c2)ncn1 [Compound 32, 2-chloro-N-(3-((6-((2-methoxybenzyl)amino)pyrimidin-4-yl)oxy)phenyl)acetamide] | 800 nM | towards the micromolar range | 590 ± 150 nM | 1000 ± 220 nM | –
O=C(CCl)Nc1cccc(Oc2cc(NCc3cc(C(F)(F)F)cc(C(F)(F)F)c3)ncn2)c1 [Compound 33, N-(3-((6-((3,5-bis(trifluoromethyl)benzyl)amino)pyrimidin-4-yl)oxy)phenyl)-2-chloroacetamide] | – | – | 4000 ± 4400 nM | 8500 ± 9800 nM | –
COc1ccc(CNc2cc(Oc3cccc(NC(=O)CCl)c3)ncn2)cc1OC [Compound 35, 2-chloro-N-(3-((6-((3,4-dimethoxybenzyl)amino)pyrimidin-4-yl)oxy)phenyl)acetamide] | 260 nM | – | 390 ± 730 nM | 120 nM | –
Cc1ccc(CNc2cc(Oc3cccc(NC(=O)CCl)c3)ncn2)cc1 [Compound 36, 2-chloro-N-(3-((6-((4-methylbenzyl)amino)pyrimidin-4-yl)oxy)phenyl)acetamide] | 360 nM | – | 420 ± 320 nM | 300 ± 150 nM | –
